In patent US20180201651A1, “PHARMACEUTICAL COMPOSITION THAT IS ANTICANCER AND SUPPRESSES CANCER METASTASIS, CONTAINING, AS ACTIVE INGREDIENT, FUSION PEPTIDE SIMULTANEOUSLY TARGETING CANCER CELL AND TUMOR ASSOCIATED MACROPHAGE” (Kyungpook National University Industry-Academic Cooperation …, priority 2015, published 2018):
Where no end group is shown, it is not given here.

Key:
IL-4 receptor [1] = biological target: T1, IL-4 receptor (Mus musculus, UniProt P16382); assay: In vivo optical imaging and histological analysis of peptide binding in 4T1 tumor cells-transplanted mice; details: for fluorescence in tumor tissues: Flamma 675-labeled peptide, tail vein
T1 construct: from tissue; host or cells: 4T1 tumour tissue in wild-type Balb/c mice (IL4R alpha knockout mice as negative control)
T1 sequence (P16382 26-810): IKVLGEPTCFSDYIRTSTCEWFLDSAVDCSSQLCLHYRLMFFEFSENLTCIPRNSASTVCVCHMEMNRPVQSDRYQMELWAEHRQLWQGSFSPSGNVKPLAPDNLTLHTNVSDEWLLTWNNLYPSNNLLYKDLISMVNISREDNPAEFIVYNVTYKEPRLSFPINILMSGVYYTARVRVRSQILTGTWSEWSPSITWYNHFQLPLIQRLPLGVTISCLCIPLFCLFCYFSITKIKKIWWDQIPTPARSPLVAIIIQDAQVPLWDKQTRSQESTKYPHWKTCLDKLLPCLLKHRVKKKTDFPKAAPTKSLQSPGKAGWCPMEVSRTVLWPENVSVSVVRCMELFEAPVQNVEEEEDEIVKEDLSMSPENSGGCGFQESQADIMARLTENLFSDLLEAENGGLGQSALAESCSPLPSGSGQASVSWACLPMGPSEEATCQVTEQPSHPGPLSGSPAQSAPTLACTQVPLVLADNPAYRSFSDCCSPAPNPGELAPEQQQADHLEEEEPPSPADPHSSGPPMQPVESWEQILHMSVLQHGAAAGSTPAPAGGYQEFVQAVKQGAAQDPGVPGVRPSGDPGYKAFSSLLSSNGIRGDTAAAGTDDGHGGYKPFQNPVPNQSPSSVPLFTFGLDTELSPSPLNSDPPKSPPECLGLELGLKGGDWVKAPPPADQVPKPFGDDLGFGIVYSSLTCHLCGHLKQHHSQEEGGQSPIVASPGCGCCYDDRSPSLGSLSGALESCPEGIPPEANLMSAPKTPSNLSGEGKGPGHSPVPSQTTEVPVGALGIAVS
Source text: Female wild-type Balb/c mice were purchased from Orient Bio (Republic of Korea) to prepare IL-4 receptor-deficient mice. Mouse tumor models were produced by subcutaneously injecting 1×10^6 4T1 tumor cells into the flank top skin of the wild-type and IL-4 receptor-deficient mice, respectively. Orthotopic animal models were produced by injecting 1×10^6 4T1 cells into the mammary fat tissue of the mice.
(§1) The Flamma 675-labeled IL4RPep-1 peptide (SEQ ID NO: 1) and control peptide (NSSSVDK) of SEQ ID NO: 7 were administered via the tail vein of 4T1 tumor cells-transplanted wild-type mice and the IL-4 receptor-deficient mice, respectively. In vivo imaging was conducted using the Optix imaging system (ART Inc., Canada) after one hour and two hours circulation. The mice were sacrificed after imaging, and tumors and organs were then excised for ex vivo imaging.
For immunohistochemical analysis, excised tumors were fixed with 4% PFA and dehydrated with 30% sucrose. 8 μm thick slices of the tumor were prepared and their histological structures were evaluated by DAPI staining.
Additionally, in order to analyze the tendency of […] of the peptide and the receptor in the tumor tissues, the tumor samples were immunostained with anti-IL4Rα antibodies and F4/80 antibodies, followed by detection with Alexa-488/594-conjugated secondary IgG antibodies (invitrogen).

IL-4 receptor [2] = assay: Immunofluorescent staining of IL4RPep-1 bound to IL-4 receptors and cells; type: cell-based
Description: In order to test whether the peptides binds to cells, tumor cells were blocked with 1% BSA solution initially, 10 μM FITC-labeled IL4RPep1 peptides of SEQ ID NO: 1 were then incubated at 4° C. for 1 hour. The cells were washed and fixed with 4% PFA, while their nuclei were stained with DAPI.
To evaluate the expression level of IL-4 receptor in the cells or tumor tissues, immunostaining was performed on frozen tissue sections or fixed mouse tumor cell lines by using anti-IL-4R, anti-IL13Rα1 and anti-IL2R γC antibodies.
After being washed with PBS, the cells were incubated at room temperature for 1 hour with secondary antibodies. Finally, following nuclear staining with DAPI, the cells were examined by a fluorescence microscope (Zeiss, Germany).

IL-10-treated 4T1 cells = assay: IL4RPep-1 binding affinity assay on IL-10-treated versus wild-type 4T1 cells; set-up: species or system mouse; details: FIG. 9A
Description: Blocking the tumor cells with 1% BSA at room temperature for 30 minutes, the biotin-labeled IL4RPep-1 peptides of various concentrations (1 to 80 μM) were incubated for 1 hour. After washing with PBS, the cells were incubated with Neutravidin HRP (1: 10000) at room temperature for 30 minutes. HRP activity was measured by using the TMB substrate, and the reaction was stopped using 2M sulfuric acid. Absorbance was measured at 450 nm using TECAN microplate reader. Kd values were calculated using Graph Pad Prism 6 software (GraphPad software Inc., La Jolla, La.).
4T1 cells were cultured using DMEM medium containing 50% of the mouse spleen-derived macrophages which were differentiated into M2 type macrophages. As for the culture medium containing TAM, the debris was removed by centrifugation and strainer prior to use. Cytokine-induced epithelial mesenchymal transition was implemented by culturing the cells with mouse IL-10 and mouse IL-4 for 24 hours or with mouse TFGβ-containing medium for 48 hours. Subsequently, the cells were stained with N-cadherin (a mesenchymal marker), and the expression level of IL-4 receptor was evaluated.

wild-type 4T1 cells = assay: Cytotoxicity evaluation (CCK8 kit); type: cell-based, mouse; details: FIG. 10A
Description: (§2) Absorbance was measured at 450 nm, and cytotoxicity was calculated by the following equation:
(§3) Cell viability=(A sample−A blank/A control−A blank)×100
(§4) A control=Absorbance value of the well which contains only cells and CCK8 solution

[3] = test system: M2 type macrophages (tumor-associated macrophages, TAM)
Description: as §2, §3, §4

[4] = test system: IL-10-treated 4T1 tumor cells; assay: Cytotoxicity evaluation (CCK8 kit); type: cell-based, mouse; details: FIG. 10B
Description: as §2, §3, §4

4T1 tumor = assay: In vivo anti-cancer and cancer metastasis inhibitory activity, orthotopic 4T1 tumor model; set-up: species or system mouse
Description: Orthotropic 4T1 tumor model were produced by the implantation of 1×10^6 4T1 cells into the left mammary fat pad of the wild-type Balb/c mouse. Tumor was left to grow until its size reached approximately 100 mm^3, followed by random segregation of mice into separate groups for administration. Mice were separated into a total of six groups with five […] in each group. Peptides ([…] ID NO: 1) and […] fusion polypeptide (SEQ ID NO: 3), respectively) were administered via the tail vein of the mouse at an equimolar concentration (1 mM peptide 200/20 g body weight of mice, administered 3 times a week for 4 weeks). Mice of the other three groups were intraperitoneally administered with 8 mg/kg dosage concentration of paclitaxel once a week, in addition to the administration of the peptides. […] The weight and tumor size of the mice were observed after administration. The tumor size was measured with a digital caliper, and the volume of the tumor was calculated by the following equation: V=(L×W×H)/2 (L: the longest-length, W: Short length, H: height) The mice were sacrificed after the last dose, and metastasis of the tumor into the lungs and liver was evaluated. The excised tumors and organs were fixed in 4% PFA and used for additional immunohistological analysis. Frozen tumor tissues were blocked with a blocking solution of 1 g of BSA, 0.2 g of gelatin and 0.05 g of saponin dissolved in PBS, followed by incubation using primary antibodies for 11⁄2 hours and staining using HRP-labeled secondary antibodies for 45 minutes at room temperature. The stained tissues were exposed using DAB (DAKO) and a contrast dyeing was performed using hematoxylin for 5 minutes at room temperature. Each step moved onto the next one after washing with PBS containing 10% blocking solution. Finally, the tissues were observed by Bright Field Microscopy.

mouse IL-4 receptor = biological target: T2, mouse IL-4 receptor (mouse, UniProt P16382 26-810); assay: in vivo and ex vivo fluorescence imaging, Flamma 675-labelled peptide, 4T1 tumor-bearing Balb/c mice
T2 construct: whole, on cells; The target is endogenous receptor on mouse cells, not a purified protein; also called IL4R alpha
T2 sequence (looked up): T1 sequence (P16382 26-810)
Description: as §1
It was evaluated whether the IL4RPep-1 peptide having the amino acid sequence of SEQ ID NO: 1 specifically binds to IL-4 receptor in 4T1 tumor cells-transplanted Balb/c wild-type mice and Balb/c IL-4 receptor-deficient (knockout) mice, respectively. That is, Flamma 675-labeled IL4RPep-1 peptides and control peptides (NSSSVDK, SEQ ID NO: 7) were administered into the tail vein of the mouse, respectively, followed by real time observation for fluorescence intensity.

[5] = 4T1-transplanted wild-type Balb/c mice, in vivo and ex vivo
[6] = frozen tumor sections, antibody staining, versus control group, FIG. 13

Description for M1-type macrophages: as §2, §3, §4

CRKRLDRNC [IL4RPep-1]
fluorescence in tumor tissues (IL-4 receptor [1]; 4T1-transplanted IL-4 receptor-deficient (knockout) Balb/c mice): no fluorescence was detected | fluorescence in tumor tissues (IL-4 receptor [1]; [5]): strongly detected | peptide binding in excised tumor tissue fragments (IL-4 receptor [1]; IL-4 receptor-deficient mice, immunostaining, FIG. 4B): no binding | peptide staining in excised tumor tissue fragments (IL-4 receptor [1]; wild-type mice, immunostaining, FIG. 4A): in the same pattern as that of IL-4 receptors | binding to cells versus expression pattern of IL-4 receptors (IL-4 receptor [2]; 4T1, A549, MDA-MB 231, M1 and M2 type Raw 264.7 cells, FITC-labeled peptide 10 μM): specifically bind to IL-4 receptors | binding pattern to cells versus expression pattern of IL-4 receptors (IL-4 receptor [2]; mouse spleen-derived M1 type and M2 type macrophages, FIG. 2A): the same as the expression pattern of IL-4 receptors | binding affinity in IL-10-treated 4T1 cells compared with wild-type 4T1 cells (IL-10-treated 4T1 cells): significantly excellent

CRKRLDRNCGGGKLAKLAKKLAKLAK (Fusion peptide) [IL4RPep-1-KLA]
cytotoxicity (wild-type 4T1 cells): insignificant | cytotoxicity [3]: excellent cytotoxicity | cytotoxicity [4]: excellent cytotoxicity | cytotoxicity (M1-type macrophages): insignificant | tumor growth (4T1 tumor; Balb/c mice, tail vein, 3 times a week for 4 weeks, from administration until end of experiment, FIG. 11): significantly suppressed | CD4(+) T cells in tumor tissue (4T1 tumor; [6]): decreased | CD8 (+) T cells in tumor tissue (4T1 tumor; [6]): increased | CD80(+) macrophages in tumor tissue (4T1 tumor; [6]): increased | F4/80(+) tumor-associated macrophages in tumor tissue (4T1 tumor; [6]): reduced | N-cadherins in tumor tissue (4T1 tumor; [6]): reduced | metastasis of cancer in liver and lungs (4T1 tumor; organs excised after final administration, FIGS. 12A and 12B): not observed at all

NSSSVDK [control peptide, reference compound]
fluorescence in tumor tissues (IL-4 receptor [1]; [5]): no fluorescence was detected

B1: control peptide (NSSSVDK) (peptide)
peptide: NSSSVDK
modifications: also: Flamma 675 label, position not given here
notes: Control peptide
binding result (mouse IL-4 receptor): no binding
